Measurements published in patent US20120157396A1, “PYRAZINAMIDE FOR IMMUNOSTIMULATION AND THE TREATMENT OF LEISHMANIASES” (priority 2009, published 2012).
Values joined by “and” are separate entries in the source; they are usually repeats but may differ in a detail not shown here. Equal values may be shown once.

Assays:
Leishmania = experiment: J774 cells infected with old- and new-world Leishmania species, 48 hr post treatment; type: cell-based
Description: FIG. 8. Effect of PZA on J774 cells infected with Leishmania 48 hr post treatment. Data expressed as % survival compared to untreated control (100% survival). Mean±SD of 3 independent determinations.
FIG. 9. A. Effect of 5-Chloro PZA on J774 cells infected with Leishmania, 48 hr post treatment. Data expressed as % survival compared to untreated control (100% survival). Mean±SD of 3 independent determinations. […] B. Cytokine IL-2 production—5-Chloro PZA stimulated 2× more proinflammatory cytokines than PZA, even in Leishmania-infected macrophages (similar results with IFNγ, TNFα, NO).

[1] = tested on: bone marrow-derived dendritic cells; experiment: Cytokine and NO production in bone marrow-derived dendritic cells; type: cell-based, C57BL/6 mice; parameters: unit not given here; details: dendritic cell, drug 100 μM
L. major = type: in vivo, C57BL/6 mice
Description: Mouse Model of CL. To assess the in vivo efficacy of PZA in a relevant in vivo model of cutaneous leishmaniasis, C57BL/6 mice were intradermally infected with 5×10^5 L. major parasites per ear (n=6 mice, 12 ears). One day after infection, mice were treated orally with PZA at several concentrations (900-150 mg/kg) for four weeks, five days a week. […] Parasite burden in ears was determined at 5 weeks post infection in all experimental groups.
Mice (n=6) were anesthetized with isoflurane (Abbott Laboratories, Chicago, Ill.) and vaccinated intradermally in both ears with 5×10^5 L. major promastigotes in a volume of 10 μl using a 27½ G needle. PZA was diluted in water and administered by oral gavage in a 0.2 ml volume. A control group was treated with water containing DMSO (3.8%). The timetable for the experiment was as follows: day 0, infection; days 1-5, 8-12, 15-19 and 22-26, drug administration, and day 70, sacrifice. Lesion size was monitored 1-2 times per week by measuring the lesion diameter with a vernier caliper. Mice were sacrificed by CO2 inhalation.
Parasite loads in the ears were determined as previously described. Briefly, the ventral and dorsal sheets of the infected ears were separated and deposited in RPMI containing 100 U/ml penicillin/100 μg/ml streptomycin and Liberase CI enzyme blend (Boehringer Mannheim, 0.5 mg/ml). Ears were incubated for 60 min at 37° C. The sheets were dissociated using a handheld tissue homogenizer. The homogenates were filtered using a 70 μm an cell strainer (BD Falcon, San Jose, Calif.) and serially diluted in a 96-well flat bottom microtiter plate containing biphasic medium prepared using 50 μl NNN medium containing 20% of defibrinated rabbit blood overlaid with 100 μl medium 199. The number of viable parasites in each ear was estimated from the highest dilution at which promastigotes could be grown out after 7 days of incubation at 26° C.

L. donovani = tested on: L. donovani
Description: To induce visceral leishmaniasis, we inoculated mice (n=8) intravenously with 5×10^6 L. donovani 1S and treated them with PZA (900-150 mg/kg) for 3 wks, 5 days/wk. The lowest dose was equivalent to dose of PZA used in humans (2 g/day). A group of mice treated with vehicle (3.8% DMSO in water) was included as a control. C57BL/6 mice infected with L. donovani typically show detectable parasites in liver and spleens for 8-12 wk. […] We euthanized mice 3 wks after the initiation of the experiment and determined total body weight, liver and spleen weights, and number of parasites in livers.

L. major promastigotes = experiment: L. major promastigote drug treatment, parasite survival after 48 h; type: cell-based; details: 48 h, promastigote
Description: The effect of PZA was first investigated with promastigotes of L. major. PZA was diluted in medium and added to cultures. After 48 h, parasite multiplication was determined by counting parasites in culture. […] Incubation of L. major with 1 μg/ml amphotericin B (as a positive control) caused 100% mortality of promastigotes and 90% of amastigotes.
Mid-log phase (day 3 of culture) L. major promastigotes were employed. Parasite concentration was adjusted to 10^6 promastigotes/ml and seeded into 96-well plates in a volume of 100 μl (final concentration, 10^5 promastigotes/well). PZA was tested in triplicate in a concentration gradient from 1,000-0.5 μg/ml and added to the wells containing the parasite in a volume of 100 μl. A negative control was included with three wells containing only parasites and medium. The positive control consisted of amphotericin B (1 μg/ml). This concentration was previously employed by us because this concentration is equivalent to drug concentrations achieved in human plasma. After 48 h of incubation at 26° C., 10 μL of each well was diluted in 90 μL of the vital colorant (trypan blue in PBS) and the parasites were quantified in a Neubauer chamber. Data was normalized as percentage of survival compared to untreated controls. The Lethal Dose 50 (LD50) was extrapolated from the graph as the concentration of the products that inhibited the parasitic growth at 50% of the values of the negative control.

[2] = PZA-treated children, Zhu et al.; cited from earlier work
splenocytes = experiment: Lymphoproliferative response of splenocytes from L. donovani-infected treated mice; type: cell-based, C57BL/6 mice; details: PZA-treated mice, dose dependent
Description: FIG. 5. PZA increases proliferation in treated splenocytes. Positive proliferation (measured as loss of CFSE staining at day 5) at 3 wk post infection in CFSE-stained splenocytes from C75BL/6 mice infected with L. donovani and treated with drug vehicle (3.8% DMSO, control) or increasing concentrations of PZA (n=3±SD), following in vitro restimulation with 25 μg/ml leishmanial antigen or 2 μg/ml concanavalin A.
VL typically induces T cell anergy toward leishmanial antigens.

[3] = mouse models of VL (FIG. 8 legend)

In the case of `NC(=O)c1cnc(Cl)cn1` [5-Cl PZA, 5-chloro pyrazinamide], the “activity at killing leishmanial species relative to PZA” value (Leishmania; old- and new-world leishmanial species in J774 cells) is reported as 10 fold, the MIC (Leishmania; variety of old- and new-world leishmanial species in J774 cells, 48 hr) is reported as 1 to 13 µM and the NO production ([1]; infected with L. major (Lm)) is reported as 876 ± 172. For the same compound, the TNF-α production ([1]; infected with L. major (Lm)) was 2986 ± 566, the NO production ([1]; uninfected) was 745 ± 211 and the TNF-α production ([1]; uninfected) was 17684 ± 678. For the same compound, the “average lesion size compared to untreated controls” value (L. major; 5-Cl PZA oral, 150 mg/kg) was “significant reduction in average lesion size”.

For `NC(=O)c1cnccn1` [PZA, pyrazinamide], the “size of livers and spleens” value (L. donovani; PZA 900-150 mg/kg, 3 wks) was “significantly reduced”, the liver parasites (L. donovani; PZA at all doses tested (900-150 mg/kg), 3 wks) was “significantly decreased” and the hepatomegaly and splenomegaly (L. donovani; [3]) was “prevented hepatomegaly and splenomegaly”. The “reduction of liver parasites” value (L. donovani; [3]) was 2-4 log 10, the MIC50 (L. major promastigotes; Leishmania major) was 10 µM and 16.2 µg/mL and the “percentage of survival compared to untreated control” value (from here on “percentage of survival”) (L. major promastigotes; PZA 1 μg/ml) was 88 ± 18%. The “percentage of survival” value (L. major promastigotes; PZA 12.5 μg/ml) was 50 ± 18%, the “percentage of survival” value (L. major promastigotes; PZA 50 μg/ml) was 38 ± 14% and the “percentage of survival” value (L. major promastigotes; PZA 200 μg/ml) was 20 ± 10%. The “percentage of survival” value (L. major promastigotes; PZA 1000 μg/ml) was 10 ± 12%, the serum concentration [2] was 41000 ng/mL and the “killing of Leishmania species” value (Leishmania; J774 cells infected with Leishmania, 48 hr post treatment (FIG. 8)) was “killed old-world and new-world VL leishmanial species”. The NO production ([1]; infected with L. major (Lm)) was 699 ± 612, the TNF-α production ([1]; infected with L. major (Lm)) was 1856 ± 125 and the NO production ([1]; uninfected) was 545 ± 221. For the same compound, the TNF-α production ([1]; uninfected) was 1654 ± 546, the “parasite burden in ears after healing” value (L. major; 12 weeks post infection) was “comparable among all experimental groups” and the “average lesion size compared with untreated mice” value (L. major; PZA oral 900-150 mg/kg, four weeks, five days a week, all time points) was “significant (P=0.0001) reduction of the average lesion size”. The “decrease of parasite burden in infected ears compared to untreated control” value (L. major; PZA oral, week 6 post infection) was 100 fold, the “body weight of experimental animals” value (L. major; mouse, in vivo) was “no significant differences in body weight” and the “proliferation of splenocytes to leishmanial antigens and concanavalin A” value (splenocytes) was “recovered their ability to proliferate”.
